Measured values published in the supplement of paper PMC10307832.

How the values were obtained:
Test in all cases: relative viability (nuclei count vs DMSO), 5 days (fraction); higher = more cells survive
[1] = compound: NC1(c2ccc(-c3nc4ccn5c(=O)[nH]nc5c4cc3-c3ccccc3)cc2)CCC1 [MK-2206] + CC(=O)Nc1cccc(-n2c(=O)n(C3CC3)c(=O)c3c(Nc4ccc(I)cc4F)n(C)c(=O)c(C)c32)c1 [Trametinib] (partner 0.02 µM)
Outline: (§1)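 After 5 days of treatment, lung cancer cells in 1536-well plates were fixed and stained in a single step (final 0.05% Triton X-100, 1% formaldehyde, 1 ug/ml Hoechst) and their nuclei counted on 4× images. Treatment had been applied by pin tool the day after seeding as one drug alone or as a fixed anchor-drug dose with five library-drug doses (not always all listed) in √10 steps. Relative viability is the nuclei count of treated wells divided by that of vehicle wells, and values are medians of duplicate plates.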

[2] = compound: NC1(c2ccc(-c3nc4ccn5c(=O)[nH]nc5c4cc3-c3ccccc3)cc2)CCC1 [MK-2206] + COc1cccc2cc(-c3nc([C@H]4CC[C@H](C(=O)O)CC4)n4ncnc(N)c34)[nH]c12 [OSI-027] (partner 0.5 µM)
Outline: as §1

[3] = compound: NC1(c2ccc(-c3nc4ccn5c(=O)[nH]nc5c4cc3-c3ccccc3)cc2)CCC1 [MK-2206] + CS(=O)(=O)CCNCc1ccc(-c2ccc3ncnc(Nc4ccc(OCc5cccc(F)c5)c(Cl)c4)c3c2)o1 [Lapatinib] (partner 2 µM)
Outline: as §1

[4] = compound: NC1(c2ccc(-c3nc4ccn5c(=O)[nH]nc5c4cc3-c3ccccc3)cc2)CCC1 [MK-2206] + Cc1nc(NC(=O)N2CCC[C@H]2C(N)=O)sc1-c1ccnc(C(C)(C)C(F)(F)F)c1 [Alpelisib] (partner 2 µM)
Outline: as §1

[5] = compound: NC1(c2ccc(-c3nc4ccn5c(=O)[nH]nc5c4cc3-c3ccccc3)cc2)CCC1 [MK-2206] + Cc1nc(Nc2ncc(C(=O)Nc3c(C)cccc3Cl)s2)cc(N2CCN(CCO)CC2)n1 [Dasatinib] (partner 0.075 µM)
Outline: as §1

Cell Line | relative viability ([1]; first compound 0.01 µM) | relative viability ([1]; first compound 0.03162 µM) | relative viability ([1]; first compound 0.3162 µM) | relative viability ([1]; first compound 1 µM) | relative viability ([2]; first compound 0.01 µM) | relative viability ([2]; first compound 0.03162 µM) | relative viability ([2]; first compound 0.3162 µM) | relative viability ([2]; first compound 1 µM) | relative viability ([3]; first compound 0.01 µM) | relative viability ([3]; first compound 0.03162 µM) | relative viability ([3]; first compound 0.3162 µM) | relative viability ([3]; first compound 1 µM) | relative viability ([4]; first compound 0.01 µM) | relative viability ([4]; first compound 0.03162 µM) | relative viability ([4]; first compound 0.3162 µM) | relative viability ([4]; first compound 1 µM) | relative viability ([5]; first compound 0.01 µM) | relative viability ([5]; first compound 0.03162 µM) | relative viability ([5]; first compound 0.3162 µM) | relative viability ([5]; first compound 1 µM)
NCI-H2023 | 0.514 | 0.532 | 0.38 | 0.376 | 0.407 | 0.366 | 0.208 | 0.227 | 0.827 | 0.818 | 0.708 | 0.492 | 0.517 | 0.598 | 0.472 | 0.405 | 0.6 | 0.542 | 0.443 | 0.362
NCI-H2085 | 0.527 | 0.52 | 0.292 | 0.36 | 0.676 | 0.819 | 0.474 | 0.365 | 0.773 | 0.81 | 0.605 | 0.467 | 0.928 | 0.914 | 0.807 | 0.702 | 0.257 | 0.234 | 0.253 | 0.242
NCI-H2087 | 0.246 | 0.211 | 0.176 | 0.133 | 0.548 | 0.636 | 0.392 | 0.303 | 1.03 | 1.41 | 1.07 | 0.805 | 1.17 | 1.03 | 1.12 | 1.1 | 0.71 | 0.962 | 0.918 | 0.775
NCI-H2126 | 0.559 | 0.543 | 0.515 | 0.455 | 0.709 | 0.683 | 0.567 | 0.48 | 0.803 | 0.739 | 0.75 | 0.737 | 0.719 | 0.707 | 0.678 | 0.621 | 0.686 | 0.625 | 0.5 | 0.476
NCI-H2170 | 0.943 | 0.898 | 0.878 | 0.87 | 0.747 | 0.701 | 0.625 | 0.588 | 0.312 | 0.276 | 0.263 | 0.258 | 0.82 | 0.835 | 0.755 | 0.776 | 0.611 | 0.504 | 0.625 | 0.559
NCI-H2228 | 0.375 | 0.433 | 0.284 | 0.448 | 0.69 | 0.446 | 0.271 | 0.214 | 1.12 | 1.01 | 0.641 | 0.373 | 0.625 | 0.621 | 0.288 | 0.262 | 0.533 | 0.485 | 0.355 | 0.266
NCI-H2347 | 0.325 | 0.262 | 0.284 | 0.263 | 0.384 | 0.375 | 0.413 | 0.277 | 0.845 | 1.06 | 0.887 | 0.953 | 0.967 | 1.11 | 1.11 | 0.973 | 0.381 | 0.315 | 0.281 | 0.254
NCI-H2405 | 0.697 | 0.682 | 0.668 | 0.533 | 0.661 | 0.641 | 0.56 | 0.452 | 1.07 | 1.19 | 0.809 | 0.859 | 0.762 | 0.877 | 0.728 | 0.673 | 0.208 | 0.241 | 0.182 | 0.231
NCI-H3122 | 0.237 | 0.234 | 0.198 | 0.211 | 0.875 | 0.963 | 0.424 | 0.163 | 1.01 | 1.07 | 1.06 | 1.1 | 0.737 | 0.659 | 0.677 | 0.636 | 0.801 | 0.789 | 0.84 | 0.118
PC-3 [JPC-3] | 0.686 | 0.804 | 0.599 | 0.735 | 0.825 | 0.749 | 0.6 | 0.641 | 0.469 | 0.457 | 0.437 | 0.441 | 0.985 | 1.01 | 1.02 | 1.04 | 0.968 | 1.01 | 1.06 | 0.934
PC-14 | 0.557 | 0.876 | 0.516 | 0.704 | 0.746 | 0.911 | 0.597 | 0.661 | 0.297 | 0.316 | 0.287 | 0.221 | 0.852 | 0.98 | 0.74 | 0.881 | 0.289 | 0.346 | 0.27 | 0.294
RERF-LC-KJ | 0.808 | 0.903 | 0.725 | 0.718 | 0.647 | 0.531 | 0.417 | 0.381 | 0.871 | 0.902 | 0.723 | 0.787 | 0.922 | 0.802 | 0.663 | 0.697 | 0.788 | 0.796 | 0.607 | 0.626
SK-LU-1 | 0.556 | 0.513 | 0.449 | 0.431 | 0.349 | 0.325 | 0.224 | 0.325 | 0.91 | 0.861 | 0.822 | 0.967 | 1.13 | 0.979 | 0.993 | 0.876 | 0.196 | 0.19 | 0.198 | 0.151
SK-MES-1 | 0.519 | 0.47 | 0.467 | 0.515 | 0.62 | 0.502 | 0.452 | 0.504 | 0.461 | 0.452 | 0.429 | 0.38 | 0.882 | 1.05 | 0.786 | 0.851 | 0.396 | 0.437 | 0.356 | 0.425
SW 1573 | 0.608 | 0.516 | 0.444 | 0.489 | 0.628 | 0.491 | 0.298 | 0.423 | 0.88 | 1.15 | 0.987 | 0.982 | 0.763 | 0.817 | 0.607 | 0.613 | 0.431 | 0.554 | 0.364 | 0.419
